From patent publication US20070128217A1 (priority 2003, published 2007)

What was measured:
[1] = tested on: control sera (pooled serum of ten healthy LUMC hospital workers; commercial negative donor pooled serum from the Dutch bloodbank); assay type: binding, human; parameters: Binding of Control serum LUMC to linear peptides / Binding of Control serum Blood-bank to linear peptides / Binding of Control serum LUMC to looped peptides / Binding of Control Serum Blood-Bank to Looped peptides / Binding of Control serum LUMC to linear peptides of the protein M of SARS-CoV Urbani / Binding of Control serum Blood-bank to linear peptides of the protein M of SARS-CoV Urbani / Binding of Control serum LUMC to looped peptides of the protein M of SARS-CoV Urbani / Binding of Control Serum Blood-Bank to Looped peptides of the protein M of SARS-CoV Urbani: unit not given here
[2] = tested on: rabbit serum obtained by immunizing a rabbit with the SARS-CoV strain Frankfurt 1; assay type: binding; parameters: Binding of a rabbit serum to linear peptides / Binding of a rabbit serum to looped peptides / Rabbit serum linear peptides / Rabbit serum looped peptides / Binding of a rabbit serum to linear peptides of protein N of SARS-CoV Urbani (Rabbit serum linear peptides) / Binding of a rabbit serum to looped/cyclic peptides of protein N of SARS-CoV Urbani (Rabbit serum looped peptides): unit not given here
[3] = tested on: antibodies in sera from SARS patients (sera 1a, 1b, 2, 6, 37, 62, London, SARS-yellow, SARS-green); assay type: binding, human; parameters: Binding of serum 6 to linear peptides of protein X1 of SARS-CoV Urbani / Binding of serum 37 to linear peptides of protein X1 of SARS-CoV Urbani / Binding of serum 6 to looped/cyclic peptide (PEPSCAN-ELISA) / Binding of serum 37 to looped/cyclic peptide (PEPSCAN-ELISA) / Binding of serum 37 to looped/cyclic peptides of protein X1 of SARS-CoV Urbani / Binding of serum 6 to linear peptides of protein X2 / Binding of serum 37 to linear peptides of protein X2 / Binding of serum 37 to looped/cyclic peptides of protein X2 of SARS-CoV Urbani / Binding of serum 6 to linear peptides of protein M of SARS-CoV Urbani / Binding of serum 37 to linear peptides of protein M of SARS-CoV Urbani / Binding of serum 6 to looped/cyclic peptides of protein M of SARS-CoV Urbani / Binding of serum 37 to looped/cyclic peptides of protein M of SARS-CoV Urbani / Binding of serum 6 to linear peptides of protein X3 of SARS-CoV Urbani / Binding of serum 37 to linear peptides of protein X3 of SARS-CoV Urbani / Binding of serum 37 to looped/cyclic peptides of protein X3 of SARS-CoV Urbani / Binding of serum 6 to linear peptides of protein X4 of SARS-CoV Urbani / Binding of serum 37 to linear peptides of protein X4 of SARS-CoV Urbani / Binding of serum 37 to looped/cyclic peptides of protein X4 of SARS-CoV Urbani / Binding of serum 6 to linear peptides of protein X5 of SARS-CoV Urbani / Binding of serum 37 to linear peptides of protein X5 of SARS-CoV Urbani / Binding of serum 37 to looped/cyclic peptides of protein X5 of SARS-CoV Urbani / Binding of serum 6 to linear peptides of protein N of SARS-CoV Urbani / Binding of serum 37 to linear peptides of protein N of SARS-CoV Urbani / Binding of serum 6 to linear peptide (PEPSCAN-ELISA) / Binding of serum 1a to looped/cyclic peptides of protein N of SARS-CoV Urbani / Binding of serum 1b to looped/cyclic peptides of protein N of SARS-CoV Urbani / Binding of serum 2 to looped/cyclic peptides of protein N of SARS-CoV Urbani / Binding of serum 6 to looped/cyclic peptides of protein N of SARS-CoV Urbani / Binding of serum 37 to looped/cyclic peptides of protein N of SARS-CoV Urbani / Binding of serum 62 to looped/cyclic peptides of protein N of SARS-CoV Urbani / Binding of serum London to looped/cyclic peptides of protein N of SARS-CoV Urbani / Binding of serum SARS-green to looped/cyclic peptides of protein N of SARS-CoV Urbani: unit not given here
[4] = tested on: recombinant human anti-SARS-CoV antibody 03-018; assay type: binding; parameters: Binding of antibody 03-018 to linear peptides of the N protein of SARS-CoV Urbani / Binding of antibody 03-018 to looped/cyclic peptides of the N protein of SARS-CoV Urbani: unit not given here

Sequence | Binding of a rabbit serum to linear peptides of protein N of SARS-CoV Urbani (Rabbit serum linear peptides) [2] | Binding of a rabbit serum to looped/cyclic peptides of protein N of SARS-CoV Urbani (Rabbit serum looped peptides) [2] | Binding of serum 1a to linear peptides of protein N of SARS-CoV Urbani [3] | Binding of serum 1a to looped/cyclic peptides of protein N of SARS-CoV Urbani [3] | Binding of serum 1b to linear peptides of protein N of SARS-CoV Urbani [3] | Binding of serum 1b to looped/cyclic peptides of protein N of SARS-CoV Urbani [3] | Binding of serum 2 to linear peptides of protein N of SARS-CoV Urbani [3] | Binding of serum 2 to looped/cyclic peptides of protein N of SARS-CoV Urbani [3] | Binding of serum 6 to linear peptides of protein N of SARS-CoV Urbani [3] | Binding of serum 6 to looped/cyclic peptides of protein N of SARS-CoV Urbani [3] | Binding of serum 37 to linear peptides of protein N of SARS-CoV Urbani [3] | Binding of serum 37 to looped/cyclic peptides of protein N of SARS-CoV Urbani [3] | Binding of serum 62 to linear peptides of protein N of SARS-CoV Urbani [3] | Binding of serum 62 to looped/cyclic peptides of protein N of SARS-CoV Urbani [3] | Binding of serum London to linear peptides of protein N of SARS-CoV Urbani [3] | Binding of serum London to looped/cyclic peptides of protein N of SARS-CoV Urbani [3] | Binding of serum SARS-green to linear peptides of protein N of SARS-CoV Urbani [3] | Binding of serum SARS-green to looped/cyclic peptides of protein N of SARS-CoV Urbani [3] | Binding of serum SARS-yellow to linear peptides of protein N of SARS-CoV Urbani [3] | Binding of serum SARS-yellow to looped/cyclic peptides of protein N of SARS-CoV Urbani [3] | other results
HGAIKLDDKDPQFKD | 0.1 | 0.3 | 0.2 | 0.2 | 0.1 | 0.1 | 0.2 | 0.2 | 0.1 | 0.1 | 0.8 | 0.5 | 0.7 | 0.3 | 0.6 | 0.3 | 0.4 | 0.3 | 0.6 | 0.3 | Control Serum Blood-Bank Looped peptides [1]: 0.4; Control serum Blood-bank linear peptides [1]: 0.6; Control serum LUMC linear peptides [1]: 0.6; Control serum LUMC looped peptides [1]: 0.4; Binding of antibody 03-018 to linear peptides of the N protein of SARS-CoV Urbani [4]: 0.1; Binding of antibody 03-018 to looped/cyclic peptides of the N protein of SARS-CoV Urbani [4]: 0.2
HGKEELRFPRGQGVP | 0.1 | 0.3 | 0.2 | 0.3 | 0.2 | 0.2 | 0.3 | 0.4 | 0.1 | 0.2 | 0.7 | 0.5 | 0.7 | 0.3 | 0.5 | 0.4 | 0.5 | 0.2 | 0.7 | 0.5 | Binding of Control Serum Blood-Bank to Looped peptides [1]: 0.5; Binding of Control serum Blood-bank to linear peptides [1]: 0.8; Binding of Control serum LUMC to linear peptides [1]: 0.6; Binding of Control serum LUMC to looped peptides [1]: 0.5; Binding of antibody 03-018 to linear peptides of the N protein of SARS-CoV Urbani [4]: 0.1; Binding of antibody 03-018 to looped/cyclic peptides of the N protein of SARS-CoV Urbani [4]: 0.2
HIDAYKTFPPTEPKK | 0.1 | 0.0 | 0.2 | 0.2 | 0.1 | 0.1 | 0.2 | 0.2 | 0.2 | 0.1 | 0.6 | 0.3 | 0.6 | 0.2 | 0.4 | 0.3 | 0.2 | 0.0 | 0.5 | 0.0 | Control Serum Blood-Bank Looped peptides [1]: 0.4; Control serum Blood-bank linear peptides [1]: 0.6; Control serum LUMC linear peptides [1]: 0.7; Control serum LUMC looped peptides [1]: 0.3; Binding of antibody 03-018 to linear peptides of the N protein of SARS-CoV Urbani [4]: 0.1; Binding of antibody 03-018 to looped/cyclic peptides of the N protein of SARS-CoV Urbani [4]: 0.2
HWPQIAQFAPSASAF | 0.1 | 0.7 | 0.3 | 0.5 | 0.2 | 0.3 | 0.2 | 0.5 | 0.2 | 0.4 | 0.8 | 0.8 | 0.7 | 1.0 | 0.6 | 0.6 | 0.4 | 0.6 | 0.8 | 0.6 | Control Serum Blood-Bank Looped peptides [1]: 0.8; Control serum Blood-bank linear peptides [1]: 0.8; Control serum LUMC linear peptides [1]: 0.7; Control serum LUMC looped peptides [1]: 0.8; Binding of antibody 03-018 to linear peptides of the N protein of SARS-CoV Urbani [4]: 0.1; Binding of antibody 03-018 to looped/cyclic peptides of the N protein of SARS-CoV Urbani [4]: 0.2
